According to patent publication US9550742B2, “11-OXO-10,11-dihydrodibenzo[B,F][1,4]thiazepine S-oxide derivatives and their use as dopamine D2 receptor antagonists” (The United States of America, as Represented by the …, priority 2013, dated 2017):

How the values were obtained:
D2 DAR = target: T1, D2 DAR (Homo sapiens, UniProt P14416); test: D2 Ca^2+ screen assay (calcium accumulation, HEK293 T-REx with Gqi5); type: cell-based; details: dopamine D2 calcium release assay of Example 1; read-out: Ca^2+ AC50
T1 construct: expressed in transfected cells; host or cells: HEK293 T-REx, Tet-inducible, with chimeric G-protein Gqi5
T1 sequence (P14416 whole entry): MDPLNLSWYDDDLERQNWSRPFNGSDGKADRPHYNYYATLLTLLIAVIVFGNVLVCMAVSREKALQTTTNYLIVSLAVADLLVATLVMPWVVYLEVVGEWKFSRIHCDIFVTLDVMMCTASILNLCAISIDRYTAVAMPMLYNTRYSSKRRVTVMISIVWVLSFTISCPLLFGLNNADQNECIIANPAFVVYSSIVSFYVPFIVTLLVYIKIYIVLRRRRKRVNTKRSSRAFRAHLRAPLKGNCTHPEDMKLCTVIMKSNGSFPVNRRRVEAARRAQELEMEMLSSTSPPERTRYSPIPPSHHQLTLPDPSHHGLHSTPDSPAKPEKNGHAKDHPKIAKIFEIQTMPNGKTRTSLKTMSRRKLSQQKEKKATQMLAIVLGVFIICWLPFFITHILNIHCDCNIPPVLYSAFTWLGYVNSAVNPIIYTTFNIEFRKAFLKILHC
Protocol: The resting concentration of calcium ions (Ca^2+) in the cells' cytoplasm is normally maintained in the range of 10-100 nM. To maintain this low concentration, Ca^2+ is actively pumped from the cytosol to the extracellular space and into the endoplasmic reticulum (ER), and sometimes into the mitochondria. Signaling occurs when the cell is stimulated to release Ca^2+ from intracellular stores. The most common signaling pathway that increases cytoplasmic calcium concentration is the phospholipase C (PLC) pathway. […] IP3 diffuses to the ER, binds to its receptor (IP3 receptor), which is a Ca^2+ channel and, thus, releases Ca^2+ from the ER to the cytosol. To measure this cytosolic Ca^2+ accumulation, we used the Screen Quest™ Fluo-8 Calcium Assay Kit (AAT Bioquest, Sunnyvale, Calif.). Acetoxymethyl (AM) esters bound to Fluo-8™ dye are non-polar molecules that easily cross live cell membranes transporting the dye inside the cell, and are then rapidly hydrolyzed by cellular esterases inside live cells. As Fluo-8™ is freed from AM esters, it binds to Ca^2+ and emits a fluorescent signal at 514 nm that escalates with increasing cytosolic Ca^2±. To measure this calcium flux signal, we used the Functional Drug Screening System (FDSS) (Hamamatsu, Japan), a high throughput screening device that allows optical detection of signal transmissions within living cells in a time-resolving fashion. […] Quest Fluo-8™ calcium reagent was freshly prepared prior to adding to the cells (lyophilized Fluo-8™ dye provided with the kit was re-suspended in 200 μL DMSO as a 500× stock and stored at −20° C.). 2 μL/well of Quest Fluo-8™ calcium dye diluted in HBSS +10 mM HEPES buffer (for every 10 mL buffer, 1 mL of 10× quencher provided in the kit and 20 μL of 500×DMSO stock dye were added) was added to cells with a Multi-Drop Combi (ThermoScientific) and incubated for 45-90 min in the dark at ambient temperature. Then, the plates were introduced into the FDSS where they were pinned with 23 nL of test compound or dopamine controls and were read by FDSS in non-stimulated mode for 180 sec for detection of agonists. […]

D2 GPCR receptor (DAR) = target: T2, D2 GPCR receptor (DAR) (Homo sapiens, UniProt P14416); test: D2 beta-arrestin functional assay (PathHunter, CHO); type: cell-based; details: ratio of D3 (Example 4) to D2 (Example 2) beta arrestin assay
T2 construct: host or cells: CHO PathHunter β-arrestin cells
T2 sequence (P14416 whole entry): as above
Description: For a secondary-screen and selectivity assays, DAR PathHunter® β-arrestin GPCR cell lines from DiscoveRx (Fremont, Calif.). In this) were used. In the D2 Receptor PathHunter® β-arrestin GPCR cell line, the D2 GPCR receptor (DAR) is overexpressed and fused with a small 42-amino acid fragment of β-galactosidase called ProLink™ on a CHO cellular background expressing a fusion protein of β-arrestin and a larger N-terminal deletion mutant of β-galactosidase (“enzyme acceptor”). When DAR is activated by dopamine, it stimulates binding of β-arrestin to the ProLink-tagged DAR and the two complementary parts of β-galactosidase form a functional enzyme. When substrate (PathHunter® Detection reagent) is added, β-galactosidase hydrolyzes it and generates a chemiluminescent signal.
D2 Receptor PathHunter® β-arrestin cells were seeded at 2,100 cells/well in 3 μL/well media (DiscoveRx Plating Reagent 2) with MultiDrop Combi dispenser (Thermo Scientific, Logan, Utah) onto white tissue culture treated 1,536-well Aurora plates (Brooks Automation, Chelmsford, Mass.) and allowed to attach overnight at 37° C., 5% CO2. Next, 23 nL/well of compound solutions in DMSO were added with a pintool transfer (Kalypsis, San Diego, Calif.). The cells were stimulated by compounds for 90 min at 37° C., 5% CO2, after which 1.5 μL/well of DiscoveRx detection reagent was added with BioRAPTR FRD dispenser. The detection reagent was prepared by mixing of Galacton Star Substrate, Emerald II solution and PathHunter buffer (supplied by the assay kit) together at a 1:5:19 proportion just prior to dispensing. The plates were incubated at ambient temperature for 1 hr, and the luminescent signal was read on a ViewLux plate reader (PerkinElmer, Waltham, Mass.).

[1] = target: D2L human dopamine receptors (Homo sapiens, UniProt P14416); test: D2 binding assay ([^3H]methylspiperone, HEK membranes); details: ratio of D3 (Example 5) to D2 (Example 3) binding assay
D2L human dopamine receptors, sequence (P14416 whole entry): as above
Protocol: Compounds were tested for differences in affinity between three dopamine receptor subtypes using radio-labeled ligand binding assays. The first assay determined the Ki value of the compounds for the D2 DAR subtype using stable HEK cell lines expressing the D2L human dopamine receptors (Codex Biosciences, Gaithersburg, Md.). Cells were cultured in Dulbecco's modified Eagle's Medium containing 10% FBS, 1,000 units/mL Penicillin, 1,000 mg/mL Streptomycin, 100 mM Sodium Pyruvate, 1 μg/mL Gentamicin, and […] G418. All cells were maintained at 37° C. in 5% CO2 and 90% humidity. For radioligand binding assays, cells were removed mechanically using calcium and magnesium-free Earle's Balanced Salt Solution (EBSS(−)). Intact cells were collected by centrifugation and then lysed with 5 mM Tris-HCl and 5 mM MgCl2 at pH 7.4 in a glass homogenizer. Homogenates were centrifuged at 20,000×g for 30 minutes. The membranes were re-suspended in EBSS (pH 7.4) and protein concentration was determined using a Bradford assay according to the manufacturer's recommendations (Bio-Rad). Membranes were diluted to 24 mg/mL. […] Membrane preparations were incubated for 90 min at room temperature with various concentrations of radioligand in a reaction volume of 250 μL EBSS containing 200 mM sodium metabisulfite. Non-specific binding was determined in the presence of 4 μM (+)-butaclamol. Bound ligand was separated from unbound by filtration through GF/C filters using a PerkinElmer cell harvester with ice cold EBSS (4 washes) and quantified on a Top-count (PerkinElmer) after addition of scintillation solution. […] In order to determine the affinity of a given compound for a receptor type, competition-binding assays were performed. […] Reactions were incubated, terminated, and quantified as indicated above.

Compound | AC50 (D2 DAR) [nM] | D3/D2 beta-arrestin IC50ratio (D2 GPCR receptor (DAR)) | D3/D2 binding Ki ratio [1]
CN1C(=O)c2ccccc2[S+]([O-])c2ccc(C(=O)NCCc3cccs3)cc21 (racemic) [Compound 32, 10-Methyl-11-oxo-N-(2-(thiophen-2-yl)ethyl)-10,11-dihydrodibenzo[b,f][1,4]thiazepine-8-carboxamide 5-oxide] | < 1000 | 22.3 | 28.7
COc1ccc(CNC(=O)c2ccc3c(c2)N(C)C(=O)c2ccccc2[S+]3[O-])cc1 (stereo not shown) [Compound 20, N-(4-Methoxybenzyl)-10-methyl-11-oxo-10,11-dihydrodibenzo[b,f][1,4]thiazepine-8-carboxamide 5-oxide] | < 1000 | – | –
COc1ccc(NC(=O)c2ccc3c(c2)N(C)C(=O)c2ccccc2[S+]3[O-])cc1 (stereo not shown) [Compound 24, N-(4-Methoxyphenyl)-10-methyl-11-oxo-10,11-dihydrodibenzo[b,f][1,4]thiazepine-8-carboxamide 5-oxide] | < 1000 | – | –
CN1C(=O)c2ccccc2[S+]([O-])c2ccc(C(=O)NCc3ccccc3)cc21 (stereo not shown) [Compound 25, N-Benzyl-10-methyl-11-oxo-10,11-dihydrodibenzo[b,f][1,4]thiazepine-8-carboxamide 5-oxide] | < 1000 | – | –
CN1C(=O)c2ccccc2[S+]([O-])c2ccc(C(=O)NCc3ccc(Cl)cc3)cc21 (stereo not shown) [Compound 27, N-(4-Chlorobenzyl)-10-methyl-11-oxo-10,11-dihydrodibenzo[b,f][1,4]thiazepine-8-carboxamide 5-oxide] | < 1000 | – | –
CN1C(=O)c2ccccc2[S+]([O-])c2ccc(C(=O)NCc3cccc(Cl)c3)cc21 (stereo not shown) [Compound 28, N-(3-Chlorobenzyl)-10-methyl-11-oxo-10,11-dihydrodibenzo[b,f][1,4]thiazepine-8-carboxamide 5-oxide] | < 1000 | – | –
CN1C(=O)c2ccccc2[S+]([O-])c2ccc(C(=O)NCc3ccc(Br)cc3)cc21 (stereo not shown) [Compound 29, N-(4-Bromobenzyl)-10-methyl-11-oxo-10,11-dihydrodibenzo[b,f][1,4]thiazepine-8-carboxamide 5-oxide] | < 1000 | – | –
CN1C(=O)c2ccccc2[S+]([O-])c2ccc(C(=O)NCc3cccnc3)cc21 (stereo not shown) [Compound 31, 10-Methyl-11-oxo-N-(pyridin-3-ylmethyl)-10,11-dihydrodibenzo[b,f][1,4]thiazepine-8-carboxamide 5-oxide] | < 1000 | – | –
CN1C(=O)c2ccccc2[S+]([O-])c2ccc(C(=O)NCCN3CCCC3)cc21 (stereo not shown) [Compound 33, 10-Methyl-11-oxo-N-(2-(pyrrolidin-1-yl)ethyl)-10,11-dihydrodibenzo[b,f][1,4]thiazepine-8-carboxamide 5-oxide] | < 1000 | – | –
CN1C(=O)c2ccccc2[S+]([O-])c2ccc(C(=O)NCCN3CCCCC3)cc21 (stereo not shown) [Compound 34, 10-Methyl-11-oxo-N-(2-(piperidin-1-yl)ethyl)-10,11-dihydrodibenzo[b,f][1,4]thiazepine-8-carboxamide 5-oxide] | < 1000 | – | –
CN(C)CCCNC(=O)c1ccc2c(c1)N(C)C(=O)c1ccccc1[S+]2[O-] (stereo not shown) [Compound 35, N-(3-(Dimethylamino)propyl)-10-methyl-11-oxo-10,11-dihydrodibenzo[b,f][1,4]thiazepine-8-carb oxamide 5-oxide] | < 1000 | – | –
CCN1C(=O)c2ccccc2Sc2ccc(C(=O)NCc3ccc(OC)cc3)cc21 [Compound 36, 10-Ethyl-N-(4-methoxybenzyl)-11-oxo-10,11-dihydrodibenzo[b,f][1,4]thiazepine-8-carboxamide] | < 1000 | – | –
CCN1C(=O)c2ccccc2[S@+]([O-])c2ccc(C(=O)NCc3ccc(OC)cc3)cc21 [Compound 38, 10-Ethyl-N-(4-methoxybenzyl)-11-oxo-10,11-dihydrodibenzo[b,f][1,4]thiazepine-8-carboxamide 5-(S)-oxide] | < 1000 | 2.5 | –
CCN1C(=O)c2ccccc2[S+]([O-])c2ccc(NC(=O)Cc3ccc(OC)cc3)cc21 (stereo not shown) [Compound 45, N-(10-Ethyl-11-oxo-10,11-dihydrodibenzo[b,f][1,4]thiazepin-8-yl)-2-(4-methoxyphenyl)acetamide 5-oxide] | < 1000 | – | –

Other lines, results leading:

AC50 (D2 DAR) [nM] | D3/D2 beta-arrestin IC50ratio (D2 GPCR receptor (DAR)) | D3/D2 binding Ki ratio [1] | Compound
< 1000 | – | – | CCCN1C(=O)c2ccccc2[S+]([O-])c2ccc(C(=O)NCc3ccc(OC)cc3)cc21 (stereo not shown) [Compound 21, N-(4-Methoxybenzyl)-11-oxo-10-propyl-10,11-dihydrodibenzo[b,f][1,4]thiazepine-8-carboxamide 5-oxide]
< 1000 | – | – | CN1C(=O)c2ccccc2[S+]([O-])c2ccc(C(=O)NCc3ccc(F)cc3)cc21 (stereo not shown) [Compound 26, N-(4-Fluorobenzyl)-10-methyl-11-oxo-10,11-dihydrodibenzo[b,f][1,4]thiazepine-8-carboxamide 5-oxide]
< 1000 | – | – | CCN1C(=O)c2ccccc2[S+]([O-])c2ccc(NC(=O)Cc3ccc(F)cc3)cc21 (stereo not shown) [Compound 46, N-(10-Ethyl-11-oxo-10,11-dihydrodibenzo[b,f][1,4]thiazepin-8-yl)-2-(4-fluorophenyl)acetamide 5-oxide]
< 1000 | 5.6 | 2.6 | CCN1C(=O)c2ccccc2[S@+]([O-])c2ccc(C(=O)NCc3ccc(F)cc3)cc21 [Compound 47, 10-Ethyl-N-(4-fluorobenzyl)-11-oxo-10,11-dihydrodibenzo[b,f][1,4]thiazepine-8-carboxamide 5-(S)-oxide]
< 1000 | 6.3 | 5.7 | CCN1C(=O)c2ccccc2[S@+]([O-])c2ccc(C(=O)NCc3ccc(C#N)cc3)cc21 [Compound 48, N-(4-Cyanobenzyl)-10-ethyl-11-oxo-10,11-dihydrodibenzo[b,f][1,4]thiazepine-8-carboxamide 5-(S)-oxide]
< 1000 | 4.5 | – | CN1C(=O)c2ccccc2[S@+]([O-])c2ccc(C(=O)NCc3ccc(Cl)cc3)cc21 [Compound 51, N-(4-Chlorobenzyl)-10-methyl-11-oxo-10,11-dihydrodibenzo[b,f][1,4]thiazepine-8-carboxamide 5-(S)-oxide]
